Assays:
[1] = test system: Plasmodium falciparum parasites; test: standard hypoxanthine incorporation method in Plasmodium falciparum parasites; assay type: cell-based; conditions: read-out: IC50 (50% inhibitory concentration)
[2] = test system: PEcΔTFP transformed with plasmids containing Pfdhfr-ts (WT) and Pfhppk-dhps (WT); test: growth inhibition of PEcΔTFP surrogate host (antifolate drug screening); assay type: cell-based, Escherichia coli BL21(DE3); conditions: PEcΔTFP with wild type Pfdhfr-ts and Pfhppk-dhps, minimal media with L-arabinose, 37 degrees Celsius, 16 hours
Experimental: (§1) Pyrimethamine and sulfathiazole were chosen for this experiment. The 50% inhibitory concentrations (IC50) of each drug were calculated from dose-response growth curves for PEcΔTFP and PEcΔTFPK surrogates transformed with plasmids containing wild type Pfdhfr-ts and Pfhppk-dhps. Cells were incubated in various concentrations of drug in minimal media supplemented with L-arabinose as an inducer and antibiotics for selection of complementing plasmids in 96-well plates at 37 degrees Celsius for 16 hours.

[3] = test system: PEcΔTFPK transformed with plasmids containing Pfdhfr-ts (WT) and Pfhppk-dhps (WT); test: growth inhibition of PEcΔTFPK surrogate host (antifolate drug screening); assay type: cell-based, Escherichia coli BL21(DE3); conditions: PEcΔTFPK with wild type Pfdhfr-ts and Pfhppk-dhps, minimal media with L-arabinose, 37 degrees Celsius, 16 hours
Experimental: as §1

| Compound | IC50 [1] | IC50 from dose-response growth curves compared with the standard method [2] | IC50 from dose-response growth curves compared with the standard method [3] |
| --- | --- | --- | --- |
| CCc1nc(N)nc(N)c1-c1ccc(Cl)cc1 [pyrimethamine] | 0.041 ± 0.006 µM | – | – |
| Nc1ccc(S(=O)(=O)Nc2nccs2)cc1 [sulfathiazole] | 135.4 ± 0.49 µM | very similar to values from the standard hypoxanthine incorporation method | very similar to values from the standard hypoxanthine incorporation method |
